pIC50: −log10 of the molar value. Counter-ions that a name gives are not always drawn. Values belong to the compound of their own block, whether it stands above or below them.
Legend:
NLRP3 [1] = biological target: T1, NLRP3 (Homo sapiens, UniProt Q96P20); assay: THP-1 cells pyroptosis assay (LPS + nigericin, resazurin readout; THP IC50); format: cell-based; design: Seed THP-1 cells (25,000 cells/well) containing 1.0 μg/ml LPS in 40 μl of RPMI medium; host or cells: THP-1 cells
Summary of the method: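 Human THP-1 cells, 25,000/well in serum-free RPMI with 1 μg/ml LPS, treated 3 hrs at 37° C with compound (8-point half-log, 10 μM top, 0.1% DMSO), then 5 μM nigericin 1 hr. Viability by 100 μM resazurin fluorescence after 1-2 hrs; IC50 by 4-parameter fit.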

NLRP3 [2] = biological target: T1, NLRP3; assay: Human whole blood IL1β release assay (LPS + nigericin, AlphaLisa IL-1β; HWB IC50); format: cell-based; design: Human whole blood in Li-heparin tubes was obtained from healthy donors from a volunteer donor panel; from tissue; host or cells: human whole blood from healthy donors; details: IL-1β release
Summary of the method: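 Donor Li-heparin whole blood primed with 1 μg/ml LPS, given compound (8-point half-log series, 10 μM top; DMSO 0.1% final) for 3 h at 37 °C, then nigericin 10 μM final for 1 h. Supernatant IL-1β measured by AlphaLisa; IC50 from 4-parameter variable-slope fit.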

T1 sequence (Q96P20 whole entry): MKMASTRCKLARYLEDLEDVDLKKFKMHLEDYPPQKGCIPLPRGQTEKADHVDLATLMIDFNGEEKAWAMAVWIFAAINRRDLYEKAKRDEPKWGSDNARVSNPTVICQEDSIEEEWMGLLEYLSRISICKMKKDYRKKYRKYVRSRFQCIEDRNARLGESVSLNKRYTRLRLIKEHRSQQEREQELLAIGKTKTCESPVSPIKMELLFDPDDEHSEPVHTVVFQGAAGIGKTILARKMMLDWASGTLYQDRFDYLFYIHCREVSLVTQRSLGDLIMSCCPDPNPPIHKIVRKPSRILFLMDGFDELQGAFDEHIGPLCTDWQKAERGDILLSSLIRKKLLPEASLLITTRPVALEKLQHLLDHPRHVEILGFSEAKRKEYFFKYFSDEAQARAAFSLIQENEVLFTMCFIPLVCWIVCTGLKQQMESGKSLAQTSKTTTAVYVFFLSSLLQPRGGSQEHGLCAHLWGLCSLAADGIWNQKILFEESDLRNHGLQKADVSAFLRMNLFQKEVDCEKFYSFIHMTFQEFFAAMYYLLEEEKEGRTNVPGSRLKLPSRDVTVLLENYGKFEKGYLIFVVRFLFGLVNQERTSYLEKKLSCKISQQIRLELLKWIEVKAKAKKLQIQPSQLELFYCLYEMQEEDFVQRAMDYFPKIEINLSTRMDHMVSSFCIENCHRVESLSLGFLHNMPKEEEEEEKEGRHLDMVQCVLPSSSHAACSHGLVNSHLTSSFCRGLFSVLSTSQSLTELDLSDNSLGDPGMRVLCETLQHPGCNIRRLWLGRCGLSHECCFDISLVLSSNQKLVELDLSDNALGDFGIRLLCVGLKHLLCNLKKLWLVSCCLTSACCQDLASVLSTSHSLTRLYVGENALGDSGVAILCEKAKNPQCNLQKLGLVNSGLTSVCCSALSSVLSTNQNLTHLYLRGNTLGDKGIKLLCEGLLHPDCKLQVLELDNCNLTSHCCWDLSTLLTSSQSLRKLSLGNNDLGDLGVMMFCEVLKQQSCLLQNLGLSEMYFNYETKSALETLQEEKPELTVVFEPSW

Compound: N#Cc1cc(-c2ccc3c(c2NC(=O)NS(=O)(=O)c2ccn(C4CCC4)n2)CCC3)ccn1 [Example 227, N-((5-(2-Cyanopyridin-4-yl)-2,3-dihydro-1H-inden-4-yl)carbamoyl)-1-cyclobutyl-1H-pyrazole-3-sulfonamide]
- pIC50 (NLRP3 [1]): ≥ 6.30
- pIC50 (NLRP3 [2]): ≥ 6.30

Compound: CC(C)n1cnc(S(=O)(=O)NC(=O)Nc2c(-c3ccnc(C#N)c3)ccc3c2CCC3)n1 [Example 228, N-((5-(2-Cyanopyridin-4-yl)-2,3-dihydro-1H-inden-4-yl)carbamoyl)-1-isopropyl-1H-1,2,4-triazole-3-sulfonamide, sodium salt]
- pIC50 (NLRP3 [1]): ≥ 6.30
- pIC50 (NLRP3 [2]): ≥ 6.30

Compound: CC(C)n1cnc(S(=O)(=O)NC(=O)Nc2c(-c3ccnc(C#N)c3)ccc3c2CCC3)c1 [Example 229, N-((5-(2-Cyanopyridin-4-yl)-2,3-dihydro-1H-inden-4-yl)carbamoyl)-1-isopropyl-1H-imidazole-4-sulfonamide]
- pIC50 (NLRP3 [1]): ≥ 6.30
- pIC50 (NLRP3 [2]): ≥ 6.30

Compound: N#Cc1cc(-c2ccc3c(c2NC(=O)NS(=O)(=O)c2cnn(CC(F)F)c2)CCC3)ccn1 [Example 231, N-((5-(2-Cyanopyridin-4-yl)-2,3-dihydro-1H-inden-4-yl)carbamoyl)-1-(2,2-difluoroethyl)-1H-pyrazole-4-sulfonamide, sodium salt]
- pIC50 (NLRP3 [1]): ≥ 6.30
- pIC50 (NLRP3 [2]): ≥ 6.30

Compound: COc1cc(-c2ccc3c(c2NC(=O)NS(=O)(=O)c2ncn(C(C)C)n2)CCC3)ccn1 [Example 232, 1-Isopropyl-N-((5-(2-methoxypyridin-4-yl)-2,3-dihydro-1H-inden-4-yl)carbamoyl)-1H-1,2,4-triazole-3-sulfonamide, sodium salt]
- pIC50 (NLRP3 [1]): ≥ 6.30
- pIC50 (NLRP3 [2]): ≥ 6.00

Compound: COc1cc(-c2ccc3c(c2NC(=O)NS(=O)(=O)c2ccn(C(C)(C)CN4CC(F)C4)n2)CCC3)ccn1 [Example 242, 1-(1-(3-Fluoroazetidin-1-yl)-2-methylpropan-2-yl)-N-((5-(2-methoxypyridin-4-yl)-2,3-dihydro-1H-inden-4-yl)carbamoyl)-1H-pyrazole-3-sulfonamide, sodium salt]
- pIC50 (NLRP3 [1]): ≥ 6.30
- pIC50 (NLRP3 [2]): ≥ 6.30

Compound: COc1cc(-c2ccc3c(c2NC(=O)NS(=O)(=O)c2ccn(C(C)(C)CN4CCCC4)n2)CCC3)ccn1 [Example 243, N-((5-(2-Methoxypyridin-4-yl)-2,3-dihydro-1H-inden-4-yl)carbamoyl)-1-(2-methyl-1-(pyrrolidin-1-yl)propan-2-yl)-1H-pyrazole-3-sulfonamide, sodium salt]
- pIC50 (NLRP3 [1]): ≥ 6.30
- pIC50 (NLRP3 [2]): ≥ 6.30

Compound: COc1cc(-c2ccc3c(c2NC(=O)NS(=O)(=O)c2cnn(C(C)C)n2)CCC3)ccn1 [Example 246, 2-Isopropyl-N-((5-(2-methoxypyridin-4-yl)-2,3-dihydro-1H-inden-4-yl)carbamoyl)-2H-1,2,3-triazole-4-sulfonamide, sodium salt]
- pIC50 (NLRP3 [1]): ≥ 6.30
- pIC50 (NLRP3 [2]): ≥ 6.00

Compound: COc1cc(-c2ccc3c(c2NC(=O)NS(=O)(=O)c2ccn(C4CC4)n2)CCO3)ccn1 [Example 248, 1-Cyclopropyl-N-((5-(2-methoxypyridin-4-3-sulfonamide, sodium salt]
- pIC50 (NLRP3 [1]): ≥ 6.30
- pIC50 (NLRP3 [2]): ≥ 6.30

Compound: COc1cc(-c2ccc3c(c2NC(=O)NS(=O)(=O)c2ccn(CCF)n2)CCC3)ccn1 [Example 249, 1-(2-Fluoroethyl)-N-((5-(2-methoxypyridin-4-yl)-2,3-dihydro-1H-inden-4-yl)carbamoyl)-1H-pyrazole-3-sulfonamide, sodium salt]
- pIC50 (NLRP3 [1]): ≥ 6.30
- pIC50 (NLRP3 [2]): ≥ 6.30

Compound: COc1cc(-c2ccc3c(c2NC(=O)NS(=O)(=O)c2cnn(C(C)C)c2)CCC3)ccn1 [Example 250, 1-Isopropyl-N-((5-(2-methoxypyridin-4-yl)-2,3-dihydro-1H-inden-4-yl)carbamoyl)-1H-pyrazole-4-sulfonamide, sodium salt]
- pIC50 (NLRP3 [1]): ≥ 6.30
- pIC50 (NLRP3 [2]): ≥ 6.30

Compound: CNc1cc(-c2ccc3c(c2NC(=O)NS(=O)(=O)c2ccn(C4CC4)n2)CCC3)ccn1 [Example 253, 1-Cyclopropyl-N-((5-(2-(methylamino)pyridin-4-yl)-2,3-dihydro-1H-inden-4-yl)carbamoyl)-1H-pyrazole-3-sulfonamide]
- pIC50 (NLRP3 [1]): ≥ 6.00
- pIC50 (NLRP3 [2]): ≥ 5.30

Compound: COc1cc(-c2ccc3c(c2NC(=O)NS(=O)(=O)c2ccn(C4CC4)n2)CCC3)c(F)cn1 [Example 255, 1-Cyclopropyl-N-((5-(5-fluoro-2-methoxypyridin-4-yl)-2,3-dihydro-1H-inden-4-yl)carbamoyl)-1H-pyrazole-3-sulfonamide, sodium salt]
- pIC50 (NLRP3 [1]): ≥ 6.30
- pIC50 (NLRP3 [2]): ≥ 6.30

Compound: COc1cc(-c2ccc3c(c2NC(=O)NS(=O)(=O)c2ccn(C4CCC4)n2)CCO3)ccn1 [Example 257, 1-Cyclobutyl-N-((5-(2-methoxypyridin-4-yl)-2,3-dihydrobenzofuran-4-yl)carbamoyl)-1H-pyrazole-3-sulfonamide, sodium salt]
- pIC50 (NLRP3 [1]): ≥ 6.30
- pIC50 (NLRP3 [2]): ≥ 6.30

The next lines start with the values.

- pIC50 (NLRP3 [1]): ≥ 6.30
- pIC50 (NLRP3 [2]): ≥ 6.00
Compound: COc1cc(-c2cc(Cl)c3c(c2NC(=O)NS(=O)(=O)c2ccn(C(C)C)n2)CCC3)ccn1 [Example 226, N-((7-Chloro-5-(2-methoxypyridin-4-yl)2,3-dihydro-1H-inden-4-yl)carbamoyl)-1-isopropyl-1H-pyrazole-3-sulfonamide, sodium salt]

- pIC50 (NLRP3 [1]): ≥ 6.30
- pIC50 (NLRP3 [2]): ≥ 6.00
Compound: COc1cc(-c2ccc3c(c2NC(=O)NS(=O)(=O)c2cn(C(C)C)cn2)CCC3)ccn1 [Example 233, 1-Isopropyl-N-((5-(2-methoxypyridin-4-yl)-2,3-dihydro-1H-inden-4-yl)carbamoyl)-1H-imidazole-4-sulfonamide]

- pIC50 (NLRP3 [1]): ≥ 6.30
- pIC50 (NLRP3 [2]): ≥ 6.00
Compound: COc1cc(-c2ccc3c(c2NC(=O)NS(=O)(=O)c2cn(C(C)C)nn2)CCC3)ccn1 [Example 234, 1-Isopropyl-N-((5-(2-methoxypyridin-4-yl)-2,3-dihydro-1H-inden-4-yl)carbamoyl)-1H-1,2,3-triazole-4-sulfonamide, sodium salt]

- pIC50 (NLRP3 [1]): ≥ 6.30
- pIC50 (NLRP3 [2]): ≥ 6.30
Compound: COc1cc(-c2ccc3c(c2NC(=O)NS(=O)(=O)c2cnn(CC(F)F)c2)CCC3)ccn1 [Example 235, 1-(2,2-Difluoroethyl)-N-((5-(2-methoxypyridin-4-yl)-2,3-dihydro-1H-inden-4-yl)carbamoyl)-1H-pyrazole-4-sulfonamide, sodium salt]

- pIC50 (NLRP3 [1]): ≥ 6.30
- pIC50 (NLRP3 [2]): ≥ 6.30
Compound: COc1cc(-c2ccc3c(c2NC(=O)NS(=O)(=O)c2ccn(C(C)(C)CN4CC(C)C4)n2)CCC3)ccn1 [Example 236, N-((5-(2-Methoxypyridin-4-yl)-2,3-dihydro-1H-inden-4-yl)carbamoyl)-1-(2-methyl-1-(3-methylazetidin-1-yl)propan-2-yl)-1H-pyrazole-3-sulfonamide]

- pIC50 (NLRP3 [1]): ≥ 6.30
- pIC50 (NLRP3 [2]): ≥ 6.00
Compound: CC(C)n1ccc(S(=O)(=O)NC(=O)Nc2c(-c3ccnc(OC(F)F)c3)ccc3c2CCC3)n1 [Example 237, N-((5-(2-(Difluoromethoxy)pyridin-4-yl)-2,3-dihydro-1H-inden-4-yl)carbamoyl)-1-isopropyl-1H-pyrazole-3-sulfonamide, sodium salt]

- pIC50 (NLRP3 [1]): ≥ 6.30
- pIC50 (NLRP3 [2]): ≥ 6.30
Compound: COc1cc(-c2ccc3c(c2NC(=O)NS(=O)(=O)c2nn(C(C)C)cc2F)CCC3)ccn1 [Example 239, 4-Fluoro-1-isopropyl-N-((5-(2-methoxypyridin-4-yl)-2,3-dihydro-1H-inden-4-yl)carbamoyl)-1H-pyrazole-3-sulfonamide]

- pIC50 (NLRP3 [1]): ≥ 6.30
- pIC50 (NLRP3 [2]): ≥ 6.30
Compound: COc1cc(-c2ccc3c(c2NC(=O)NS(=O)(=O)c2ccn(C4CCC4)n2)CCC3)ccn1 [Example 244, 1-Cyclobutyl-N-((5-(2-methoxypyridin-4-yl)-2,3-dihydro-1H-inden-4-yl)carbamoyl)-1H-pyrazole-3-sulfonamide, sodium salt]

- pIC50 (NLRP3 [1]): ≥ 6.30
- pIC50 (NLRP3 [2]): ≥ 6.30
Compound: Cc1cc(-c2ccc3c(c2NC(=O)NS(=O)(=O)c2ccn(C(C)C)n2)CCC3)ccn1 [Example 245, 1-Isopropyl-N-((5-(2-methylpyridin-4-yl)-2,3-dihydro-1H-inden-4-yl)carbamoyl)-1H-pyrazole-3-sulfonamide, sodium salt]

- pIC50 (NLRP3 [1]): ≥ 6.30
- pIC50 (NLRP3 [2]): ≥ 6.30
Compound: COc1cc(-c2ccc3c(c2NC(=O)NS(=O)(=O)c2ccn(C4(CN(C)C)CCC4)n2)CCC3)ccn1 [Example 247, 1-(1-((Dimethylamino)methyl)cyclobutyl)-N-((5-(2-methoxypyridin-4-yl)-2,3-dihydro-1H-inden-4-yl)carbamoyl)-1H-pyrazole-3-sulfonamide, sodium salt]

- pIC50 (NLRP3 [1]): ≥ 6.30
- pIC50 (NLRP3 [2]): ≥ 6.30
Compound: COc1cc(-c2ccc3c(c2NC(=O)NS(=O)(=O)c2ccn(C(C)(C)C)n2)CCC3)ccn1 [Example 252, 1-(tert-Butyl)-N-((5-(2-methoxypyridin-4-yl)-2,3-dihydro-1H-inden-4-yl)carbamoyl)-1H-pyrazole-3-sulfonamide, sodium salt]

- pIC50 (NLRP3 [1]): ≥ 6.30
- pIC50 (NLRP3 [2]): ≥ 6.30
Compound: COc1cc(-c2ccc3c(c2NC(=O)NS(=O)(=O)c2ccn(C(C)(C)CN4CCC4)n2)CCO3)ccn1 [Example 258, 1-(1-(Azetidin-1-yl)-2-rnethylpropan-2-yl)-N-((5-(2-methoxypyridin-4-yl)-2,3-dihydrobenzofuran-4-yl)carbamoyl)-1H-pyrazole-3-sulfonamide, sodium salt]

- pIC50 (NLRP3 [1]): ≥ 6.30
- pIC50 (NLRP3 [2]): ≥ 6.30
Compound: COc1cc(-c2ccc3c(c2NC(=O)NS(=O)(=O)c2ccn(C(C)(C)C)n2)CCO3)ccn1 [Example 259, 1-(tert-Butyl)-N-((5-(2-methoxypyridin-4-yl)-2,3-dihydrobenzofuran-4-yl)carbamoyl)-1H-pyrazole-3-sulfonamide, sodium salt]
